# Assay: Release of nitric oxide depending on pH (Sievers NOA nitric oxide detector)
# Type: physicochemical
# Conditions: 1 mg in 40 ml DPBS, pH 7.4 (FIG. 8)
# Procedure: FIGS. 8 to 10 illustrate results obtained using a nitric oxide detector (Sievers NOA, GE analytical instruments, USA) in order to confirm a nitric oxide release behavior of the synthesized CaP—NO depending on the change in pH. FIG. 8 illustrates a result of observing the nitric oxide release behavior after adding 1 mg of AEATS to 40 ml of Dulbecco's Phosphate-Buffered Saline (DPBS, pH 7.4). […] FIG. 9 illustrates a result of confirming a nitric oxide release behavior of CaP—NO depending on a change in pH. […] When the pH was increased to 7.4 again, nitric oxide was not released, and as a result of observing the nitric oxide release behavior while repeatedly changing the pH, it was confirmed that when the pH was 5, nitric oxide was released.
structure (smiles),measurement,value
"CO[Si](CCCNCCN)(OC)OC [AEATS, N-(2-aminoethyl)-3-aminopropyl trimethoxysilane]",nitric oxide release behavior,a large amount of nitric oxide was released

# — US10301332B2, “Method of selectively releasing nitric oxide depending on change in pH using calcium phosphate” (INSTITUTE FOR BASIC SCIENCE, priority 2015, dated 2019)
